Test system: oseltamivir-resistant influenza A/Hong Kong/2369/2009 (H1N1pdm) H275Y
Design: species or system BALB/c mice
Conditions: mouse, in vivo

## CCOC(=O)C1=C[C@@H](OC(CC)CC)[C@H](NC(C)=O)[C@@H](N)C1 [oseltamivir]
  protection from weight loss (mean body weights): did not protect mice from weight loss

— patent publication US20250320279A1, “UNGULATE-DERIVED POLYCLONAL IMMUNOGLOBULIN SPECIFIC FOR INFLUENZA VIRUS AND USES THEREOF” (priority 2021, published 2025)
